Laboratory results published in article PMC12903969, “Discovery of a Novel and Potent Kir4.1 Inhibitor as a Safe and Rapid‐Onset Antidepressant Agent in Mice” (Advanced Science, 2025).
Where “and” joins values, the source holds several entries; their conditions need not be identical. Equal entries are not always repeated.

Tests used:
Kir1.1 = target: T1, Kir1.1 (Homo sapiens, UniProt P48048); experiment: Whole-cell patch clamp, Kir1.1; assay type: cell-based; conditions: mean ± SEM
T1 construct: host or cells: CHO-K1
T1 sequence (P48048 whole entry): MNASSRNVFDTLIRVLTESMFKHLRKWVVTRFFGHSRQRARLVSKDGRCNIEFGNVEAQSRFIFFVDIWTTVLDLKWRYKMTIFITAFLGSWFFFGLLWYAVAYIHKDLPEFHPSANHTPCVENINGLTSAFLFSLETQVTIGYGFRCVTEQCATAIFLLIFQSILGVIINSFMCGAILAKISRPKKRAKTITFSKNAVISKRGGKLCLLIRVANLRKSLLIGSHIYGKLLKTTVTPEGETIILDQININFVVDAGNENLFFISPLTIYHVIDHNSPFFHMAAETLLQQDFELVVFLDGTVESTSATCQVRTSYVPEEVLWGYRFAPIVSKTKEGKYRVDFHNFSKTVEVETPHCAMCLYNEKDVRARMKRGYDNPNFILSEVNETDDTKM
Procedure: Plasmids encoding WT human potassium channels Kir1.1, Kir2.1, Kir2.2, Kir4.1, and Kir4.2 were obtained from the Beijing Genomics Institute. All point mutations were constructed using the QuickChange II Site‐Directed Mutagenesis Kit (Stratagene) and subsequently verified by sequencing.
CHO‐K1 cells were maintained in DMEM/F12 growth medium containing 10% fetal bovine serum. Plasmids encoding the target genes (3600 ng) and enhanced green fluorescent protein (400 ng) were cotransfected into cells using Lipofectamine 2000 (Invitrogen) in accordance with the manufacturer's instructions. Cells were seeded onto poly‐d‐lysine (PDL)‐coated glass coverslips 1 h prior to electrophysiological recordings. […]
(§1) Whole‐cell patch‐clamp recordings were obtained either in transiently transfected CHO‐K1 cells or in primary cultured astrocytes at room temperature using standard patch‐clamp techniques with an Axopatch‐700B amplifier (Axon Instruments). […] Macroscopic currents generated by expressed potassium channels were recorded under the voltage‐clamp conditions with an internal pipette solution composed of (in mM): 140 KCl, 5 NaCl, 1 CaCl2, 1 MgCl2, 10 HEPES, and 10 EGTA, pH 7.2 adjusted with KOH. […] Astrocytic resting membrane potentials were recorded under current‐clamp conditions (I = 0 pA) using standard internal and external solutions, determined immediately after achieving whole‐cell mode.

KCNQ2 = KCNQ2 (Homo sapiens, UniProt O43526); experiment: KCNQ2 channel inhibition; assay type: cell-based; design: KCNQ2 inhibition, single recordings: unit not given here
Source text: Whole‐cell patch‐clamp recordings were obtained either in transiently transfected CHO‐K1 cells or in primary cultured astrocytes at room temperature using standard patch‐clamp techniques with an Axopatch‐700B amplifier (Axon Instruments). The signals were filtered at 2 kHz and sampled at 20 kHz using the Digidata 1440A interface (Axon Instruments). The resistance of borosilicate glass pipettes was typically 2–4 MΩ when filled with the internal solution. Drug application was facilitated using a BPS perfusion system (ALA Scientific Instruments). Macroscopic currents generated by expressed potassium channels were recorded under the voltage‐clamp conditions with an internal pipette solution composed of (in mM): 140 KCl, 5 NaCl, 1 CaCl2, 1 MgCl2, 10 HEPES, and 10 EGTA, pH 7.2 adjusted with KOH. The external solution contained (in mM): 140 NaCl, 5 KCl, 2 CaCl2, 1 MgCl2, 10 glucose, and 10 HEPES, pH 7.4 adjusted with NaOH. Currents were elicited with a hyperpolarized voltage at −120 mV from the holding potential of −80 mV, followed by a ramp voltage depolarizing to +50 mV. Astrocytic resting membrane potentials were recorded under current‐clamp conditions (I = 0 pA) using standard internal and external solutions, determined immediately after achieving whole‐cell mode.

OBX C57BL/6J mice = experiment: Olfactory bulbectomy (OBX) model, open field test; assay type: in vivo; conditions: 30 mg kg−1, within 1 h
Source text: Male C57BL/6J mice (8–12 weeks old) were anesthetized by intraperitoneal injection of tiletamine‐zolazepam‐xylazine. Following confirmation of anesthesia, a midline scalp incision was made to expose the skull, and the bregma was identified as the anatomical reference point. Using a stereotaxic frame (Stoelting), bilateral olfactory bulbs (4 mm anterior to the bregma) were aspirated through a 1‐mm burr hole drilled with a dental drill. Hemostatic sponges were applied to the burr holes, and the incision was closed with 5‐0 silk sutures. The sham‐operated controls underwent identical procedures without bulb aspiration. Prophylactic antibiotic therapy (25% ampicillin, […], i.p.) was administered daily for three consecutive days post‐surgery. The animals were monitored during a 14‐day recovery period prior to behavioral assessments. After euthanasia, successful bulbectomy was verified by gross anatomical inspection, and habenular tissues were dissected on ice for subsequent molecular analyses.
This test was used to assess anxiety‐related behaviors in the mice. C57BL/6J mice were individually habituated to a 40 × 40 × 40 cm^3 open field arena under dim light for […]. Locomotor activity during the final 5 min was digitally recorded (30 fps) and analyzed using Tracking Master (Future Life Science (Shanghai) Co., Ltd., Shanghai, China). […]

Kir4.1 cKO astrocytes = experiment: Patch clamp of Kir4.1 cKO primary astrocytes; assay type: cell-based, mouse; conditions: tamoxifen-treated Kir4.1 cKO astrocytes, 3 µM
Procedure: Astrocytes were isolated and cultured as previously described.^[ [16] ^] Briefly, the cortices from P1‐P4 mouse pups were dissected and incubated for 25 min in Hank's Balanced Salt Solution (22.5 ml) with 2.5% trypsin (2.5 ml) at 37 °C. Cells were dissociated in cultured medium (DMEM/F12 supplemented with 10% fetal bovine serum and 1% penicillin and streptomycin) and filtered with a 70‐µm cell strainer. Cell suspensions were cultured in PDL‐pretreated 75‐cm^2 flasks for the initial seven days, with half of the medium replaced every 2 days. Subsequently, the cultures were shaken at 220 rpm for 6 h at 37 °C to remove microglia and oligodendrocytes from the astrocyte layers. […]
as §1

mice [1] = experiment: Novel object recognition test (NOR); assay type: in vivo; conditions: chronic 10 mg kg−1 per day
Procedure: This test was designed to assess memory in rodents. The mice were individually exposed to familiar and novel objects. The test consists of three phases: habituation, training, and retention. During habituation, each animal freely traversed an empty cubic arena (≈40 cm per side) for 5 min, then was returned to its home cage. In the subsequent training phase, two identical rectangular objects were fixed 10 cm from opposite walls, and the mouse, introduced with its snout directed toward the center of the distal wall, was allowed to investigate the objects for 5 min. One hour later, in the retention phase, one of the familiar objects was exchanged for a geometrically distinct but comparably sized novel object, and exploration was recorded for 5 min. The positions of familiar and novel objects were systematically randomized across trials to prevent spatial bias. Object exploration was quantified as the duration of direct nose/mouth orientation toward objects within ≤ 2 cm, excluding instances of turning away or sitting on objects. Recognition memory was assessed using the discrimination ratio, calculated as N/(N + F) × 100%, where N represents the exploration time of the novel object and F denotes the exploration time of the familiar object.

mice [2] = experiment: Shuttle box test (SBT); assay type: in vivo
Procedure: This test was designed to measure learning and memory function in rodents. The shuttle box consists of two compartments connected by a freely passable gate. The mice were allowed to explore the test chamber freely for 5 min before the test to eliminate exploratory reflexes. Each mouse was placed in one compartment of the shuttle box. The conditioning protocol began with a 5‐s conditioned stimulus presentation of light (200 lux) and auditory tone (100 dB, 1000 Hz), followed immediately by a 3‐s footshock (300 µA) unconditioned stimulus. Escape to the opposite compartment during the conditioned stimulus presentation was scored as an active avoidance response, whereas escape occurring only after shock onset was recorded as […]. […] Each test session consisted of 40 trials with 10‐s inter‐trial intervals, with the number of active avoidance responses systematically recorded.

## c1ccc2c(c1)oc1ccc(Nc3ccnc(NCCCN4CCOCC4)n3)cc12 [JX3212, N^4-(dibenzo[b,d]furan-2-yl)-N^2-(3-morpholinopropyl)pyrimidine-2,4-diamine]
Kir1.1
  inhibition at 3 µM: 17.8 ± 8.26%
KCNQ2
  IC50: 5.99 µM
KCNQ2; concentration 3
  KCNQ2 inhibition, single recordings: 22.0588 and 21.8921 and 13.4681
KCNQ2; concentration 10
  KCNQ2 inhibition, single recordings: 79.5346 and 67.5255 and 78.5615
KCNQ2; concentration 30 (unit not given)
  KCNQ2 inhibition, single recordings: 97.6879 and 84.1578 and 95.4545
OBX C57BL/6J mice
  OBX: percentage of distance traveled in the center (in words): increased percentage of distance traveled in the center
  OBX: total distance traveled (in words): did not affect the distance traveled
Kir4.1 cKO astrocytes
  JX3212-induced effects in Kir4.1 cKO astrocytes (in words): abolished
Mice [1]
  NOR discrimination ratio vs vehicle (in words): showed no effects
Mice [2]; chronic 10 mg kg−1 per day
  shuttle box active avoidance responses (in words): no significant differences
Mice [2]; chronic 10 mg/kg per day (Fig 5G)
  SBT active avoidance responses, single mice: 22 and 29 and 31 and 32 and 21 and 24 and 28 and 25
